Experimental data as given in patent US20070237885A1, “PROCESS FOR THE ISOLATION OF LIMONOID GLUCOSIDES FROM CITRUS” (THE TEXAS A & M UNIVERSITY SYSTEM, priority 2006, published 2007).

Assays:
[1] = tested on: azoxymethane (AOM)-induced aberrant crypt foci (ACF); details: dietary intake; initiation and post-initiation feeding experiments; male F344 rats; cited from earlier work
Anti-oxidant properties = test: Anti-oxidant properties
Excerpt: This offers potential advantages over the use of synthetic methods which require more complicated procedures to prepare pure limonoid compounds.

[2] = tested on: MDA-MB-435 oestrogen receptor-negative human breast cancer cells; details: MDA-MB-435 cells; [3H] thymidine incorporation; cited from earlier work
Water solubility = type: physicochemical
Excerpt: (§1) Limon glucoside is a triterpene derivative, in which aglycone part is linked to a glucose moiety, and it is water-soluble. Citrus plants containing the above-named limonoid glucoside derivatives belong to the Rutaceae family, and include, for example, Citrus paradisi and Citrus aurantium. The fresh fruits of Citrus paradisi (Rio Red grapefruit) and Citrus aurantium (sour orange) are currently produced in large amounts as acidulants for preparing juice and pickles in various parts of the World, and thus are readily available sources for extraction of limonoid glucosides. A method or process for isolating limonoid glucosides in gram quantities was devised.

cancer cells = test: Inhibition of cancer cells in cell culture models; type: cell-based
Excerpt: as §1

[3] = tested on: DMBA-induced buccal pouch tumours; details: hamsters; cited from earlier work
[4] = tested on: 7,12-dimethylbenz[a]anthracene (DMBA)-induced buccal pouch epidermoid carcinomas; details: cited from earlier work; for incidence of DMBA-induced buccal pouch epidermoid carcinomas: female Syrian hamsters
[5] = tested on: benzo[a]pyrene-induced forestomach neoplasia; details: mice; cited from earlier work

Compound	anti-oxidant properties (Anti-oxidant properties)	IC50, inhibition of proliferation [2] [µg/mL]	inhibition of cancer cells (cancer cells)	decrease of average tumour burden [3]	also measured
CC1(C)OC(=O)C=C[C@]2(C)[C@H]3CC[C@@]4(C)[C@H](c5ccoc5)OC(=O)[C@H]5O[C@]54[C@]3(C)C(=O)C[C@@H]12 [obacunone]					formation of aberrant crypt foci (ACF) [1]: significantly inhibited
CC1(C)O[C@H]2CC(=O)OC[C@]23[C@H]2CC[C@@](C)([C@@H](O[C@@H]4O[C@H](CO)[C@@H](O)[C@H](O)[C@H]4O)c4ccoc4)[C@@]4(O[C@@H]4C(=O)O)[C@]2(C)C(=O)C[C@@H]13 [Compound (2), limonin-17-β-D-glucopyanoside]	exhibit anti-oxidant properties	75	exhibited inhibition	effective	water solubility (Water solubility): water-soluble
isoobacunoic-17-β-D-glucopyranoside [Compound (1)]	exhibit anti-oxidant properties		exhibited inhibition		
nomilinic acid 17-β-D-glucopyranoside [NAG]				only LG was effective	
deacetyl nomilinic acid glucoside [Compound (3)]	exhibit anti-oxidant properties		exhibited inhibition		
nomilin 17-β-D-glucopyranoside [NG]				only LG was effective	
CC1(C)O[C@H]2CC(=O)OC[C@]23[C@H]2CC[C@@]4(C)[C@H](c5ccoc5)OC(=O)[C@H]5O[C@]54[C@]2(C)C(=O)C[C@@H]13 [limonin]		12.5			incidence of DMBA-induced buccal pouch epidermoid carcinomas [4]: reduced the incidence; comparative inhibition of DMBA-induced neoplasia ([4]; limonin compared with nomilin): more effective inhibitor; formation of aberrant crypt foci (ACF) [1]: significantly inhibited
CC(=O)O[C@H]1CC(=O)OC(C)(C)[C@@H]2CC(=O)[C@]3(C)[C@H](CC[C@@]4(C)[C@H](c5ccoc5)OC(=O)[C@H]5O[C@]543)[C@@]12C [nomilin]		0.4			inhibition of benzo[a]pyrene-induced forestomach neoplasia [5]: inhibited; incidence of DMBA-induced buccal pouch epidermoid carcinomas [4]: reduced the incidence
